Each structure is given as a SMILES string. Bounds are passed on as bounds.

The first experiment deals with T1, IRAK4 (Homo sapiens, UniProt Q9NWZ3).
T1 construct: endogenous in cells; host or cells: OCI-LY10
T1 sequence (Q9NWZ3 1-460): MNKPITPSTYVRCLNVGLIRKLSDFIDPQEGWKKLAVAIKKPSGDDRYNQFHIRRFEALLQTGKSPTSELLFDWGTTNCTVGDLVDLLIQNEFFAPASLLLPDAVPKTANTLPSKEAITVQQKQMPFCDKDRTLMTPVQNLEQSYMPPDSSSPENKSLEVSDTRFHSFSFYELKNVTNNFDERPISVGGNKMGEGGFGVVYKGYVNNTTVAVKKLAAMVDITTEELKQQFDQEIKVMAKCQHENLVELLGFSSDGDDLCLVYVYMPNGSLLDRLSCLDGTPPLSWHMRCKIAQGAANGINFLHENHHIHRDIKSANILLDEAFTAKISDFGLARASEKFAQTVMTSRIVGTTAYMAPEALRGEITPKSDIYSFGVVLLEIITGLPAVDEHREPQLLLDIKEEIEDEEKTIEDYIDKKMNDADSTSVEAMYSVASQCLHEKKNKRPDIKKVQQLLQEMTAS
As to the kind of experiment: IRAK4 MSD Degradation in OCI-LY10. The experiment is classed as cell-based. To be noted: OCI-LY10 cells, 4 hrs incubation, read-out: IRAK4 degradation in OCI-LY10 at 4 hrs: DC50. In short, it runs like this: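 OCI-LY10 cells treated with 8-dose, 1:3 dilution series (top final 1 to 10 μM) for 4 to 24 h at 37 °C, 5% CO2. Lysate IRAK4 quantified by MSD sandwich immunoassay (mouse 2H9 capture, rabbit Y279 detection, SULFO-TAG anti-rabbit); DC50 from three-parameter logistic fit.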
In the case of `COc1cc2nn([C@H]3CC[C@H](CN4CCC5(CC4)CN(Cc4cccc6c4n(C)c(=O)n6C4CCC(=O)NC4=O)CCO5)CC3)cc2cc1NC(=O)c1cccc(C(F)(F)F)n1` (some centres unmarked) [I-289], the DC50 is 50 to 100 nM.

For `COc1cc2nn([C@H]3CC[C@H](C(=O)N(C)C4CCN(Cc5cccc6c5n(C)c(=O)n6C5CCC(=O)NC5=O)CC4)CC3)cc2cc1NC(=O)c1cccc(C(F)(F)F)n1` (some centres unmarked) [I-293], the DC50 fell in the range of 50 to 100 nM.

`COc1cc2nn([C@H]3CC[C@H](C(=O)N4CCC(c5cccc6c5n(C)c(=O)n6C5CCC(=O)NC5=O)CC4)CC3)cc2cc1NC(=O)c1cccc(C(F)(F)F)n1` (some centres unmarked) [I-295, N-[2-[4-[4-[1-(2,6-dioxo-3-piperidyl)-3-methyl-2-oxo-benzimidazol-4-yl]piperidine-1-carbonyl]cyclohexyl]-6-methoxy-indazol-5-yl]-6-(trifluoromethyl)pyridine-2-carboxamide]: the DC50 fell in the range of 50 to 100 nM.

Turning to `Cn1c(=O)n(C2CCC(=O)NC2=O)c2cccc(CCC3CC4(CCN(C[C@H]5CC[C@H](n6cc7cc(NC(=O)c8cnn9cccnc89)c(C(F)F)cc7n6)CC5)CC4)C3)c21` (some centres unmarked) [I-299], the DC50 was < 50 nM.

As to `Cn1c(=O)n(C2CCC(=O)NC2=O)c2cccc(CCCC3CCN(C[C@H]4CC[C@H](n5cc6cc(NC(=O)c7cccc(C(F)(F)F)n7)c(C(F)F)cc6n5)CC4)CC3)c21` (some centres unmarked) [I-300], the DC50 lay within 50 to 100 nM.

As to `CN(CCO[C@H]1C[C@H](Cc2cccc3c2n(C)c(=O)n3C2CCC(=O)NC2=O)C1)C[C@H]1CC[C@H](n2cc3cc(NC(=O)c4cccc(C(F)(F)F)n4)c(C(F)F)cc3n2)CC1` (some centres unmarked) [I-309], the DC50 is 50 to 100 nM.

On to `CN(C[C@H]1CC[C@H](n2cc3cc(NC(=O)c4cccc(C(F)(F)F)n4)c(C(C)(C)O)cc3n2)CC1)c1cccc2c1n(C)c(=O)n2C1CCC(=O)NC1=O` (some centres unmarked) [I-310, N-[2-[4-[[[1-(2,6-dioxo-3-piperidyl)-3-methyl-2-oxo-benzimidazol-4-yl]-methyl-amino]methyl]cyclohexyl]-6-(1-hydroxy-1-methyl-ethyl)indazol-5-yl]-6-(trifluoromethyl)pyridine-2-carboxamide], for which the DC50 fell in the range of 500 to 1000 nM.

Consider `Cn1c(=O)n(C2CCC(=O)NC2=O)c2cccc(C3CCN(C[C@H]4CC[C@H](n5cc6cc(NC(=O)c7cnccn7)c(C(C)(C)O)cc6n5)CC4)CC3)c21` (some centres unmarked) [I-320], for which the DC50 was < 50 nM.

Take `CN(C[C@H]1CC[C@H](n2cc3cc(NC(=O)c4cccc(C5CC5)n4)c(C(C)(C)O)cc3n2)CC1)C1CCN(Cc2cccc3c2n(C)c(=O)n3C2CCC(=O)NC2=O)CC1` (some centres unmarked) [I-322]: the DC50 is < 50 nM.

`COc1cc2nn([C@H]3CC[C@H](CN4CCC(c5cccc6c5n(C)c(=O)n6C5CCC(=O)NC5=O)CC4)CC3)cc2cc1NC(=O)c1ccncn1` (some centres unmarked) [I-324]: the DC50 is < 50 nM.

The experiment is the same for the next values; noted with them: OCI-LY10 cells, 24 hrs incubation, read-out: IRAK4 degradation in OCI-LY10 at 24 hrs: DC50.
For the compound `CN(CCCO[C@H]1C[C@H](Nc2cccc3c2C(=O)N(C2CCC(=O)NC2=O)C3=O)C1)C[C@H]1CC[C@H](n2cc3cc(NC(=O)c4cccc(S(F)(F)(F)(F)F)n4)c(C(C)(C)O)cc3n2)CC1` (some centres unmarked) [I-290], the DC50 lay in the range of 50 to 100 nM.

For the compound `CC(C)(O)c1cc2nn([C@H]3CC[C@H](CN4CCC5(CC4)CC(Nc4cccc6c4C(=O)N(C4CCC(=O)NC4=O)C6=O)C5)CC3)cc2cc1NC(=O)c1cccc(S(F)(F)(F)(F)F)n1` (some centres unmarked) [I-291], the DC50 is < 50 nM.

Consider `COc1cc2nc([C@H]3CC[C@H](CN4CC5(CCC(CNc6cccc7c6C(=O)N(C6CCC(=O)NC6=O)C7=O)CC5)C4)CC3)oc2cc1NC(=O)c1cccc(C(C)(F)F)n1` (some centres unmarked) [I-292], for which the DC50 was 50 to 100 nM.

Take `CC(C)(O)COc1cc2nn([C@H]3CC[C@H](CN4CC5(CC(CCNc6cccc7c6C(=O)N(C6CCC(=O)NC6=O)C7=O)C5)C4)CC3)cc2cc1NC(=O)c1cccc(C(C)(F)F)n1` (some centres unmarked) [I-296]: the DC50 lay in the range of 50 to 100 nM.

Take `O=C1CCC(N2C(=O)c3ccc(NCC4CC5(C4)CN(C[C@H]4CC[C@H](n6cc7cc(NC(=O)c8cccc(S(F)(F)(F)(F)F)n8)c(N8CCCCC8)cc7n6)CC4)C5)cc3C2=O)C(=O)N1` (some centres unmarked) [I-297]: the DC50 was 100 to 500 nM.

`Cc1cccc(C(=O)Nc2cc3cn([C@H]4CC[C@H](CN5CCC(COCCCNc6cccc7c6C(=O)N(C6CCC(=O)NC6=O)C7=O)CC5)CC4)nc3cc2C(C)(C)O)n1` (some centres unmarked) [I-304]: the DC50 was < 50 nM.

As for `COc1cc2nn([C@H]3CC[C@H](CN4CCC(O[C@H]5C[C@H](Nc6cccc7c6C(=O)N(C6CCC(=O)NC6=O)C7=O)C5)CC4)CC3)cc2cc1NC(=O)c1cccc(C(C)(C)F)n1` (some centres unmarked) [I-305], the DC50 lay within 50 to 100 nM.

In the case of `CN(C[C@H]1CC[C@H](n2cc3cc(NC(=O)c4cccc(C(C)(C)F)n4)c(C(C)(C)O)cc3n2)CC1)[C@H]1CC[C@H](Nc2cccc3c2C(=O)N(C2CCC(=O)NC2=O)C3=O)CC1` (some centres unmarked) [I-306], the DC50 was < 50 nM.

Consider `Cc1nc(C(=O)Nc2cc3cn([C@H]4CC[C@H](CN(C)[C@H]5CC[C@H](CNc6cccc7c6C(=O)N(C6CCC(=O)NC6=O)C7=O)CC5)CC4)nc3cc2C(C)(C)O)ccc1F` (some centres unmarked) [I-308], for which the DC50 is 50 to 100 nM.

`COc1cc2nn([C@H]3CC[C@H](CN4CCC(O[C@H]5CC[C@H](CNc6cccc7c6C(=O)N(C6CCC(=O)NC6=O)C7=O)CC5)CC4)CC3)cc2cc1NC(=O)c1cccc(C(C)(C)F)n1` (some centres unmarked) [I-311]: the DC50 was 50 to 100 nM.

On to `CC(C)(O)c1cc2nn([C@H]3CC[C@H](CN4CCC(O[C@H]5C[C@H](Nc6cccc7c6C(=O)N(C6CCC(=O)NC6=O)C7=O)C5)CC4)CC3)cc2cc1NC(=O)c1cccc(C(F)(F)F)n1` (some centres unmarked) [I-312], for which the 50% degradation concentration (DC50) is < 50 nM.

Take `CC(C)(O)c1cc2nn([C@H]3CC[C@H](CN4CCC5(CC4)CC(Nc4cccc6c4C(=O)N(C4CCC(=O)NC4=O)C6=O)C5)CC3)cc2cc1NC(=O)c1cccc(C(F)(F)F)n1` (some centres unmarked) [I-313]: the DC50 was < 50 nM.

Consider `O=C1CCC(N2C(=O)c3cccc(NCCC4CC5(CCN(C[C@H]6CC[C@H](c7nc8cc(N9CCC(CO)CC9)c(NC(=O)c9cccc(C(F)(F)F)n9)cc8o7)CC6)CC5)C4)c3C2=O)C(=O)N1` (some centres unmarked) [I-314], for which the DC50 is 100 to 500 nM.

With `COc1c(NC(=O)c2cccc(C(C)(C)F)n2)cc2cn([C@H]3CC[C@H](CN4CC5(CC(CCNc6cccc7c6C(=O)N(C6CCC(=O)NC6=O)C7=O)C5)C4)CC3)nc2c1C` (some centres unmarked) [I-315], the DC50 lay within 50 to 100 nM.

`COc1cc2nn([C@H]3CC[C@H](CN4CCC5(CC4)CC(CNc4cccc6c4C(=O)N(C4CCC(=O)NC4=O)C6=O)C5)CC3)cc2cc1NC(=O)c1coc(-c2ccnc(C)c2)n1` (some centres unmarked) [I-316]: the DC50 was 50 to 100 nM.

For the compound `COc1cc2nn([C@H]3CC[C@H](CN(C)[C@H]4CC[C@@]5(CC4)C[C@@H](CNc4cccc6c4C(=O)N(C4CCC(=O)NC4=O)C6=O)C5)CC3)cc2cc1NC(=O)c1cccc(C(F)(F)F)n1` (some centres unmarked) [I-317], the DC50 lay in the range of 50 to 100 nM.

For `COc1cc2nn([C@H]3CC[C@H](CN(C)[C@H]4CC[C@H](Nc5cccc6c5C(=O)N(C5CCC(=O)NC5=O)C6=O)CC4)CC3)cc2cc1NC(=O)c1cccc(S(F)(F)(F)(F)F)n1` (some centres unmarked) [I-318], the DC50 lay in the range of 50 to 100 nM.

For `C[C@@]1(CN2CCC3(CC2)CC(CCNc2cccc4c2C(=O)N(C2CCC(=O)NC2=O)C4=O)C3)Cc2cc(NC(=O)c3cccc(C(F)(F)F)n3)c(N3CCOCC3)cc2O1` (stereo partly drawn) [I-319, N-((2S)-2-((2-(2-((2-(2,6-dioxopiperidin-3-yl)-1,3-dioxoisoindolin-4-yl)amino)ethyl)-7-azaspiro[3.5]nonan-7-yl)methyl)-2-methyl-6-morpholino-2,3-dihydrobenzofuran-5-yl)-6-(trifluoromethyl)picolinamide], the DC50 fell in the range of 500 to 1000 nM.

As for `COc1cc2nc([C@H]3CC[C@H](CN4CCC5(CC4)CC(Nc4cccc6c4C(=O)N(C4CCC(=O)NC4=O)C6=O)C5)CC3)oc2cc1NC(=O)c1cnn2cccnc12` (some centres unmarked) [I-321], the DC50 is < 50 nM.

(Values after patent US12545659B2, “IRAK degraders and uses thereof” (Kymera Therapeutics, Inc., priority 2019, dated 2026).)
